Measured values: ChEMBL document CHEMBL3885881, “DrugMatrix”

Organism: Rattus norvegicus
Assay: DrugMatrix - Regimen: Daily Repeat
Format: toxicity, organism-based, Sprague-Dawley
Set-up: regimen Daily Repeat, gender Male, age 6-8 weeks
Settings: in vivo, iv, 33 mg/kg, dose level Low, vehicle 100 % SALINE; for ABSOLUTE BASOPHIL / ABSOLUTE EOSINOPHIL / ABSOLUTE LYMPHOCYTE / ABSOLUTE MONOCYTE / ABSOLUTE SEGMENTED NEUTROPHIL / BASOPHIL / EOSINOPHIL / ERYTHROCYTE COUNT / HEMATOCRIT / HEMOGLOBIN / LEUKOCYTE COUNT / LYMPHOCYTE / MEAN CORPUSCULAR HEMOGLOBIN / MEAN CORPUSCULAR HEMOGLOBIN CONCENTRATION / MEAN CORPUSCULAR VOLUME / MONOCYTE / NEUTROPHIL / NUCLEATED RED BLOOD CELLS / PLATELET COUNT: tissue Blood; for ALANINE AMINOTRANSFERASE / ALBUMIN / ALKALINE PHOSPHATASE / ASPARTATE AMINOTRANSFERASE / BLOOD UREA NITROGEN / CARBON DIOXIDE / CHLORIDE / CHOLESTEROL / CREATINE PHOSPHOKINASE / CREATININE / GLUCOSE / LACTATE DEHYDROGENASE / LIPASE / PHOSPHORUS / POTASSIUM / SODIUM / TOTAL BILIRUBIN / TOTAL PROTEIN / URIC ACID: tissue Plasma

CO/N=C(\C(=O)N[C@@H]1C(=O)N2C(C(=O)O)=C(COC(C)=O)CS[C@H]12)c1csc(N)n1 [CEFOTAXIME]
ABSOLUTE BASOPHIL (72 h, time 3 day): 0 CELLS/uL | ABSOLUTE EOSINOPHIL (72 h, time 3 day): 0 CELLS/uL | ABSOLUTE LYMPHOCYTE (72 h, time 3 day): 11282.67 CELLS/uL | ABSOLUTE MONOCYTE (72 h, time 3 day): 120 CELLS/uL | ABSOLUTE SEGMENTED NEUTROPHIL (72 h, time 3 day): 730.67 CELLS/uL | BASOPHIL (72 h, time 3 day): 0% | EOSINOPHIL (72 h, time 3 day): 0% | ERYTHROCYTE COUNT (72 h, time 3 day): 5.79 x10E6/uL | HEMATOCRIT (72 h, time 3 day): 35.7% | HEMOGLOBIN (72 h, time 3 day): 13.43 G/DL | LEUKOCYTE COUNT (72 h, time 3 day): 12.13 x10E3/uL | LYMPHOCYTE (72 h, time 3 day): 93% | MEAN CORPUSCULAR HEMOGLOBIN (72 h, time 3 day): 23.2 pg | MEAN CORPUSCULAR HEMOGLOBIN CONCENTRATION (72 h, time 3 day): 37.63 G/DL | MEAN CORPUSCULAR VOLUME (72 h, time 3 day): 61.63 fL | MONOCYTE (72 h, time 3 day): 0.67% | NEUTROPHIL (72 h, time 3 day): 6.33% | NUCLEATED RED BLOOD CELLS (72 h, time 3 day): 0 /100WBC | PLATELET COUNT (72 h, time 3 day): 1231.67 x10E3/uL | ALANINE AMINOTRANSFERASE (72 h, time 3 day): 55 u/L | ALBUMIN (72 h, time 3 day): 4.17 G/DL | ALKALINE PHOSPHATASE (72 h, time 3 day): 343 u/L | ASPARTATE AMINOTRANSFERASE (72 h, time 3 day): 90.67 u/L | BLOOD UREA NITROGEN (72 h, time 3 day): 15.67 mg/dL | CARBON DIOXIDE (72 h, time 3 day): 25.67 mmol/L | CHLORIDE (72 h, time 3 day): 103.33 MEQ/L | CHOLESTEROL (72 h, time 3 day): 73.67 mg/dL | CREATINE PHOSPHOKINASE (72 h, time 3 day): 330.67 u/L | CREATININE (72 h, time 3 day): 0.38 mg/dL | GLUCOSE (72 h, time 3 day): 167.33 mg/dL | LACTATE DEHYDROGENASE (72 h, time 3 day): 139.33 u/L | LIPASE (72 h, time 3 day): 12 u/L | PHOSPHORUS (72 h, time 3 day): 14.17 mg/dL | POTASSIUM (72 h, time 3 day): 7.29 MEQ/L | SODIUM (72 h, time 3 day): 146.03 MEQ/L | TOTAL BILIRUBIN (72 h, time 3 day): 0.17 mg/dL | TOTAL PROTEIN (72 h, time 3 day): 5.8 G/DL | URIC ACID (72 h, time 3 day): 2.07 mg/dL | ABSOLUTE BASOPHIL (120 h, time 5 day): 0 CELLS/uL | ABSOLUTE EOSINOPHIL (120 h, time 5 day): 0 CELLS/uL | ABSOLUTE LYMPHOCYTE (120 h, time 5 day): 11544.67 CELLS/uL | ABSOLUTE MONOCYTE (120 h, time 5 day): 213 CELLS/uL | ABSOLUTE SEGMENTED NEUTROPHIL (120 h, time 5 day): 1075.67 CELLS/uL | BASOPHIL (120 h, time 5 day): 0% | EOSINOPHIL (120 h, time 5 day): 0% | ERYTHROCYTE COUNT (120 h, time 5 day): 5.16 x10E6/uL | HEMATOCRIT (120 h, time 5 day): 32.83% | HEMOGLOBIN (120 h, time 5 day): 12.33 G/DL | LEUKOCYTE COUNT (120 h, time 5 day): 12.83 x10E3/uL | LYMPHOCYTE (120 h, time 5 day): 90% | MEAN CORPUSCULAR HEMOGLOBIN (120 h, time 5 day): 23.93 pg | MEAN CORPUSCULAR HEMOGLOBIN CONCENTRATION (120 h, time 5 day): 37.77 G/DL | MEAN CORPUSCULAR VOLUME (120 h, time 5 day): 63.47 fL | MONOCYTE (120 h, time 5 day): 1.67% | NEUTROPHIL (120 h, time 5 day): 8.33% | NUCLEATED RED BLOOD CELLS (120 h, time 5 day): 0 /100WBC | PLATELET COUNT (120 h, time 5 day): 1107.67 x10E3/uL | ALANINE AMINOTRANSFERASE (120 h, time 5 day): 62.33 u/L | ALBUMIN (120 h, time 5 day): 4.3 G/DL | ALKALINE PHOSPHATASE (120 h, time 5 day): 354.67 u/L | ASPARTATE AMINOTRANSFERASE (120 h, time 5 day): 90.33 u/L | BLOOD UREA NITROGEN (120 h, time 5 day): 17.67 mg/dL | CARBON DIOXIDE (120 h, time 5 day): 23 mmol/L | CHLORIDE (120 h, time 5 day): 104.67 MEQ/L | CHOLESTEROL (120 h, time 5 day): 70.33 mg/dL | CREATINE PHOSPHOKINASE (120 h, time 5 day): 349.67 u/L | CREATININE (120 h, time 5 day): 0.49 mg/dL | GLUCOSE (120 h, time 5 day): 153 mg/dL | LACTATE DEHYDROGENASE (120 h, time 5 day): 186 u/L | LIPASE (120 h, time 5 day): 11 u/L | PHOSPHORUS (120 h, time 5 day): 11.7 mg/dL | POTASSIUM (120 h, time 5 day): 6.42 MEQ/L | SODIUM (120 h, time 5 day): 146.17 MEQ/L | TOTAL BILIRUBIN (120 h, time 5 day): 0.2 mg/dL | TOTAL PROTEIN (120 h, time 5 day): 6.03 G/DL | URIC ACID (120 h, time 5 day): 1.63 mg/dL
